Molecules are shown by their SMILES.

What all share (type): biochemical
Common to all, as to settings: 10 uM GPP, 30 mM KCl, 5 mM MgCl2, 1 mM MnCl2, 50 mM HEPES pH 7.5, 30 °C, 1 h

For one assay, the target named is T1, PdTPS3 (Paeonia delavayi, UniProt A0A9E8G7R5).
T1 construct: full-length cDNA, C-terminal His6, E. coli Transetta (DE3), Ni-NTA purified; the five PdTPS are 553-600 residues, about 65 kDa; plastid-localized
Put plainly: GC-MS of headspace product (geraniol).

The next assay addresses T2, PdTPS4 (Paeonia delavayi, UniProt A0A9E8GE34).
T2 construct: full-length cDNA, C-terminal His6, E. coli Transetta (DE3), Ni-NTA purified; the five PdTPS are 553-600 residues, about 65 kDa; plastid-localized
Put plainly: GC-MS of headspace product (linalool).

For a further assay, the target named is T3, PdTPS1 (Paeonia delavayi, UniProt A0A9E8GEC8).
T3 construct: full-length cDNA, C-terminal His6, E. coli Transetta (DE3), Ni-NTA purified; the five PdTPS are 553-600 residues, about 65 kDa; plastid-localized
T3 sequence (A0A9E8GEC8 entry or part of it): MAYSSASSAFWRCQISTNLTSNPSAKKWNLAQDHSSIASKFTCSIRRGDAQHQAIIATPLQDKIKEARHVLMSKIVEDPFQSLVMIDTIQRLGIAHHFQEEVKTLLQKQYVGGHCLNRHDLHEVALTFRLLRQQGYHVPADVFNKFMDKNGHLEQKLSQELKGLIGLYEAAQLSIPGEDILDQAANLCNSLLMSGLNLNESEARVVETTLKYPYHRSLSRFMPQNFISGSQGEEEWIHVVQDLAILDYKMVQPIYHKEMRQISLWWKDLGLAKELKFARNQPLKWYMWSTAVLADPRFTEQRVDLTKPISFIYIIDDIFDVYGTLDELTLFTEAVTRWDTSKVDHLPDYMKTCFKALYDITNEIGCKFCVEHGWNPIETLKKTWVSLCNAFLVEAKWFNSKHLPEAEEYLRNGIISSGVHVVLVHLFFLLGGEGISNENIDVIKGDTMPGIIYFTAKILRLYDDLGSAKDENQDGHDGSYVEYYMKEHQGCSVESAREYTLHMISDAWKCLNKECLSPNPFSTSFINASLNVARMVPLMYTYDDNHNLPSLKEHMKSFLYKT
Put plainly: GC-MS of headspace product (linalool).

T2 sequence (A0A9E8GE34 entry or part of it): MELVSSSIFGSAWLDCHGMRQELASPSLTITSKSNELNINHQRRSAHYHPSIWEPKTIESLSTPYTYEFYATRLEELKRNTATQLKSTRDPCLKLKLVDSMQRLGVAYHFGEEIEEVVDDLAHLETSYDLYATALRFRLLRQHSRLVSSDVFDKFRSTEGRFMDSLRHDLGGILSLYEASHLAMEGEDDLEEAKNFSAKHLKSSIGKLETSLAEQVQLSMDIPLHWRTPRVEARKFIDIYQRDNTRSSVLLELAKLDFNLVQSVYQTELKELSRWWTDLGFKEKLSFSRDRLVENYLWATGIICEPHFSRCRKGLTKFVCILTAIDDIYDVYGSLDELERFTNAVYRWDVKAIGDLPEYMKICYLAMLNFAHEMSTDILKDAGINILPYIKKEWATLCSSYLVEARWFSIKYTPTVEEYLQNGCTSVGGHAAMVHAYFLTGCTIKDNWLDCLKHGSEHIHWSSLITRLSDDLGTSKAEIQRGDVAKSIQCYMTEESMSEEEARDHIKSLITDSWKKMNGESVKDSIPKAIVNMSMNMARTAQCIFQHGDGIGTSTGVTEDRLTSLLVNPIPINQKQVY
T1 sequence (A0A9E8G7R5 entry or part of it): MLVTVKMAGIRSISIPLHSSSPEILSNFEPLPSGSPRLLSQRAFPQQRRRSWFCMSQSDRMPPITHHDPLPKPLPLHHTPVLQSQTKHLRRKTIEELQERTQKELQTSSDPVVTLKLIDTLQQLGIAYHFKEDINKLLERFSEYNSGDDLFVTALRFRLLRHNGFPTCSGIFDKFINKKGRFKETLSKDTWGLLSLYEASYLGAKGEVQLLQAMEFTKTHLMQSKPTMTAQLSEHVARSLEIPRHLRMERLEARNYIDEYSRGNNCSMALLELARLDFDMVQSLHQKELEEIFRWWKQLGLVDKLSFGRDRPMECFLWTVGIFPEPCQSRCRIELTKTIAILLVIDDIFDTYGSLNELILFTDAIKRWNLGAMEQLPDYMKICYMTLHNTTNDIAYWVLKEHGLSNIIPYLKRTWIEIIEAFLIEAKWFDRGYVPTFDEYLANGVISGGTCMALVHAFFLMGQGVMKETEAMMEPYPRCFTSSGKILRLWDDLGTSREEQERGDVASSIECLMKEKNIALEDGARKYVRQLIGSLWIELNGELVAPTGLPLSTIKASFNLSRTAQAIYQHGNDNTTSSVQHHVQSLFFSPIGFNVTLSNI

As for `CC(C)=CCC/C(C)=C/COP(=O)(O)OP(=O)(O)O` [GPP], on PdTPS3, the “GC-MS of headspace product (geraniol)” value is given as “The reaction products catalyzed by PdTPS3 with GPP formed geraniol rather than linalool”. Further, the “GC-MS of headspace product (linalool)” value at PdTPS4 was “both PdTPS1 and PdTPS4 catalyzed the formation of acyclic terpene alcohols with linalool”; on PdTPS1 it was “both PdTPS1 and PdTPS4 catalyzed the formation of acyclic terpene alcohols with linalool”.

The values above are taken from publication PMC9896599, “Biogenesis of flavor-related linalool is diverged and genetically conserved in tree peony (Paeonia × suffruticosa)” (Horticulture Research, 2022).
